# Source: patent publication US20160037780A1, “BORON CONTAINING COMPOUNDS AND USES THEREOF” (EMPIRE TECHNOLOGY DEVELOPMENT LLC, priority 2013, published 2016)
# Columns and labels:
# Gloeophyllum trabeum = experiment: Soil block test (AWPA E10-10), decay resistance of treated wood blocks; format: cell-based; settings: 12 weeks at 28° C., mean of 6 blocks (SD)
# Protocol: Soil Block Test. The soil block test (AWPA, 2010) is a relatively rapid laboratory method for assessing the decay resistance of wood-based materials under conditions that favor rapid fungal attack of wood. Soil block tests were conducted upon blocks treated with compounds and compositions described herein. Leachates from the blocks were collected prior to fungal exposure and analyzed.
# Ponderosa pine (Pinus ponderosa L) sapwood blocks (19 mm cubes) were oven dried (60° C.) and weighed. The blocks were then randomly allocated, in groups of 12, to the various treatment groups. Treatment solutions containing actives (e.g., the compounds and compositions described herein) were supplied as 10% active ingredient concentrates. These solutions were then diluted with toluene to produce treatment solutions containing 0.1, 0.5, 1.0 and 3.0% active ingredient solutions. The blocks from a given group were placed in a container and covered with an excess of a given treatment solution. This container was placed in a desiccator. A vacuum was drawn over the vessel and then released. The blocks were removed from the treatment solution and blotted to remove excess solution before being weighed. The difference between the original dry weight and the wet weight was used to calculated net solution uptake. The blocks were stored wet for 3 days at 20-23° C. to allow any fixation reactions to proceed before being oven dried at 60° C. and weighed. The blocks were then conditioned to constant weight at 23° C. and 65% relative humidity prior to further testing.
# (§1) Six blocks from each treatment group were subjected to a 14-day leaching procedure as described AWPA Standard E11-10 from the American Wood Preservers' Association's (AWPA) “Standard method of determining the leachability of wood preservatives” in the AWPA Book of Standards, Birmingham, Ala., 2010. The blocks were immersed in an excess of water, and subjected to a short vacuum. The water was then changed after 6, 24, and 48 hours of immersion and at 48 hour intervals over a total of 14 days. An aliquot of the leachate was retained at each time point for later analysis. The leached blocks were then reconditioned to constant weight at 23° C. and 65% relative humidity. Leachate collected at each time point was analyzed for boron using the azomethine H method as described in AWPA Standard A2-10 Method 16. All of the blocks were briefly soaked with water prior to being placed in plastic bags and sterilized by exposure to 2.5 mrad of ionizing radiation from a cobalt 60 source.
# Decay chambers were prepared by half filling 454 ml French squares with moisture forest loam and placing a western hemlock feeder strip on the soil surface as described in AWPA Standard E10-10 “Standard method of testing wood preservatives by laboratory soil-block cultures.” The bottles were then loosely capped and autoclaved for 45 minutes at 121° C.
# After cooling, the bottles were inoculated with 2 to 3 mm diameter malt agar disks cut from the actively growing edges of cultures of the test fungus, Gloeophyllum trabeum (Pers. ex Fr.) Murr. (Isolate: Madison 617). This fungus causes a brown rot of wood and tends to have some tolerance to boron compounds. The agar plugs were placed on the edges of the wood feeder strips, and the jars were loosely capped (to allow air exchange), and incubated until the feeder strip was thoroughly covered with fungal mycelium. The sterile test blocks were then placed on the surfaces of the feeder strips, the bottles were loosely capped and incubated at 28° C. for 12 weeks.
# At the end of the incubation period, the blocks were removed, scraped clean of adhering mycelium and weighed to determine wet weight. The blocks were then oven dried (60° C.) and weighed. Differences between initial and final oven-dry weight were used as a measure of the decay resistance of each material.
# [1] = 14-day leaching procedure (AWPA E11-10), boron in leachate by azomethine H method; format: physicochemical; settings: 14-day water leaching of treated blocks
# Protocol: as §1
substance,measurement,setting,value
Borate,Average Wood Weight Loss,"Gloeophyllum trabeum; 0.1% B, Leaching + (first line of treatment)",50.8 (4.2) %
same,Average Wood Weight Loss,"Gloeophyllum trabeum; 0.1% B, second line of treatment, Leaching +",53.8 (11.5) %
same,Average Wood Weight Loss,"Gloeophyllum trabeum; 0.5% B, Leaching + (first line of treatment)",46.5 (3.3) %
same,Average Wood Weight Loss,"Gloeophyllum trabeum; 0.5% B, second line of treatment, Leaching +",46.3 (2.4) %
same,Average Wood Weight Loss,"Gloeophyllum trabeum; 1.0% B, Leaching + (first line of treatment)",53.6 (4.3) %
same,Average Wood Weight Loss,"Gloeophyllum trabeum; 1.0% B, second line of treatment, Leaching +",48.3 (8.7) %
same,Average Wood Weight Loss,"Gloeophyllum trabeum; 3.0% B, Leaching + (first line of treatment)",51.8 (8.3) %
same,Average Wood Weight Loss,"Gloeophyllum trabeum; 3.0% B, second line of treatment, Leaching printed + (probably non-leached)",27.3 (6.9) %
same,Boron concentrations in leachates (rank among formulations),[1],highest
